From patent US20060069132A1, “Azolecarboxamide herbicides” (priority 2004, published 2006)

Legend:
annual bluegrass = test: Test E pre-/postemergence herbicide test; format: in vivo, Poa annua
Procedure, shortened: (§1)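 Ratings from 0 (no effect) to 100 (complete control) were assigned by visual comparison with untreated plants 12 to 14 days after application. Test chemicals, formulated with surfactant in a non-phytotoxic solvent blend, were applied to soil after planting or to foliage of 2–18 cm plants.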

bermudagrass = test: Test E pre-/postemergence herbicide test; format: in vivo, Cynodon dactylon
Procedure, shortened: as §1

broadleaf signalgrass = test: Test E pre-/postemergence herbicide test; format: in vivo, Brachiaria platyphylla
Procedure, shortened: as §1

common mallow = test: Test E pre-/postemergence herbicide test; format: in vivo, Malva sylvestris
Procedure, shortened: as §1

pitted morningglory = test: Test E pre-/postemergence herbicide test; format: in vivo, Ipomoea lacunosa
Procedure, shortened: as §1

johnsongrass = test: Test E pre-/postemergence herbicide test; format: in vivo, Sorghum halepense
Procedure, shortened: as §1

hairy beggarticks = test: Test E pre-/postemergence herbicide test; format: in vivo, Bidens radiata; settings: Preemergence
Text: Seeds of plant species selected from bipinnate beggarticks (Bidens bipinnata L.), hairy beggarticks (Bidens radiata Thuill.), bermudagrass (Cynodon dactylon (L.) Pers.), Surinam grass (Urochloa decumbens (Staph) R. D. Webster, previously named Brachiaria decumbens Stapf), large crabgrass (Digitaria sanguinalis (L.) Scop.), green foxtail (Setaria viridis (L.) P. Beauv.), goosegrass (Eleusine indica (L.) Gaertn.), johnsongrass (Sorghum halepense (L.) Pers.), kochia (Kochia scoparia (L.) Schrad.), pitted morningglory (Ipomoea lacunosa L.), purple nutsedge (Cyperus rotundus L.), common ragweed (Ambrosia elatior L.), mustard (Brassica nigra (L.) W. D. J. Koch), guineagrass (Panicum maximum Jacq.), dallisgrass (Paspalum dilatatum Poir.), barnyardgrass (Echinochloa crus-galli (L). P. Beauv.), southern sandbur (Cenchrus echinatus L.), common sowthistle (Sonchus oleraceous L.), prickly sida (Sida spinosa L.), Italian ryegrass (Lolium multiflorum Lam.), common purslane (Portulaca oleracea L.), broadleaf signalgrass (Brachiaria platyphylla (Griseb.) Nash), common groundsel (Senecio vulgaris L.), common chickweed (Stellaria media (L.) Vill/Cyr.), tropical spiderwort (Commelina benghalensis L.), annual bluegrass (Poa annua L.), downy bromegrass (Bromus tectorum L.), itchgrass (Rottboellia cochinchinensis (L.) L.f.), quackgrass (Elytrigia repens (L.) Nevski), Canada horseweed (Erigeron Canadensis L.), field bindweed (Convolvulus arvensis L.), spotted spurge (Euphorbia maculata L.), common mallow (Malva sylvestris (=s silvestris) L.), and Russian thistle (Salsola kali L. ssp. Ruthenica (Iljin) Soo) were planted and treated preemergence with test chemicals formulated in a non-phytotoxic solvent mixture which included a surfactant.
At the same time, plants selected from these weed species were treated with postemergence applications of some of the test chemicals formulated in the same manner. Plants ranged in height from 2 to 18 cm (1- to 4-leaf stage) for postemergence treatments. Treated plants and controls were maintained in a greenhouse for 12 to 14 days, after which time all species were compared to controls and visually evaluated. Plant response ratings, summarized in Table E, are based on a scale of 0 to 100 where 0 is no effect and 100 is complete control. A dash (-) response means no test result.

Surinam grass = test: Test E pre-/postemergence herbicide test; format: in vivo, Urochloa decumbens
Procedure, shortened: as §1

barnyardgrass = test: Test E pre-/postemergence herbicide test; format: in vivo, Echinochloa crus-galli
Procedure, shortened: as §1

Canada horseweed = test: Test E pre-/postemergence herbicide test; format: in vivo, Erigeron Canadensis
Procedure, shortened: as §1

common groundsel = test: Test E pre-/postemergence herbicide test; format: in vivo, Senecio vulgaris
Procedure, shortened: as §1

windgrass = test: Test C postemergence herbicide test; format: in vivo, Apera spica-venti
Procedure, shortened: (§2)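 Visual rating, 0 (no effect) to 100 (complete control), vs. controls at 12–14 d in greenhouse. Postemergence: 1–4-leaf plants, 2–18 cm. Paddy: flooded, barnyardgrass at 2-leaf stage.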

Italian ryegrass = test: Test C postemergence herbicide test; format: in vivo, Lolium multiflorum
Procedure, shortened: as §2

[1] = Preemergence, 125 g ai/ha, scale 0 to 100
[2] = Preemergence, 250 g ai/ha, scale 0 (no effect) to 100 (complete control)
[3] = Preemergence, 375 g ai/ha, scale 0 (no effect) to 100 (complete control)
[4] = Preemergence, 500 g ai/ha, scale 0 (no effect) to 100 (complete control)
[5] = Postemergence, 500 g ai/ha, scale 0 to 100
[6] = Postemergence, 250 g ai/ha, scale 0 to 100
[7] = Preemergence, 62 g ai/ha, scale 0 to 100
[8] = postemergence, 125 g ai/ha, scale 0 to 100
[9] = postemergence, 62 g ai/ha, scale 0 to 100
[10] = Postemergence, 500 g ai/ha, scale 0 to 100, 0 no effect, 100 complete control

CCc1nn(C(C)(C)C)cc1C(=O)Nc1cc(C(=O)N(C)C)ccn1 [Compound 293]
95: Plant response rating, Bluegrass (annual bluegrass; [1]) | Plant response rating, Bluegrass (annual bluegrass; [2]) | Plant response rating, Bluegrass (annual bluegrass; [3]) | Plant response rating, Bermudagrass (bermudagrass; [2]) | Plant response rating, Bermudagrass (bermudagrass; [3]) | Plant response rating, Bermudagrass (bermudagrass; [4]) | Plant response rating, Signalgrass (broadleaf signalgrass; [2]) | Plant response rating, Signalgrass (broadleaf signalgrass; [3])
80: Plant response rating, Mallow (common mallow; [3]) | Plant response rating, Surinam Grass (Surinam grass; [1])
50: Plant response rating, Signalgrass (broadleaf signalgrass; [1]) | Plant response rating, Mallow (common mallow; [2]) | Plant response rating, Morningglory (pitted morningglory; [3])
60: Plant response rating, Johnsongrass (johnsongrass; [2]) | Plant response rating, Barnyardgrass (barnyardgrass; [1])
10: Plant response rating, Morningglory (pitted morningglory; [1]) | Plant response rating, Johnsongrass (johnsongrass; [1])
70: Plant response rating, Johnsongrass (johnsongrass; [3])
90: Plant response rating, Bermudagrass (bermudagrass; [1]) | Plant response rating, Morningglory (pitted morningglory; [4])
85: Plant response rating, Mallow (common mallow; [4]) | Plant response rating, Johnsongrass (johnsongrass; [4])
40: Plant response rating, Mallow (common mallow; [1]) | Plant response rating, Morningglory (pitted morningglory; [2])
100: Plant response rating, Bluegrass (annual bluegrass; [4]) | Plant response rating, Signalgrass (broadleaf signalgrass; [4]) | Plant response rating, Beggarticks, Hairy (hairy beggarticks; 125 g ai/ha, scale 0 to 100) | Plant response rating, Beggarticks, Hairy (hairy beggarticks; 250 g ai/ha, scale 0 (no effect) to 100 (complete control)) | Plant response rating, Beggarticks, Hairy (hairy beggarticks; 375 g ai/ha, scale 0 (no effect) to 100 (complete control)) | Plant response rating, Beggarticks, Hairy (hairy beggarticks; 500 g ai/ha, scale 0 (no effect) to 100 (complete control)) | Plant response rating, Surinam Grass (Surinam grass; [3]) | Plant response rating, Surinam Grass (Surinam grass; [4]) | Plant response rating, Barnyardgrass (barnyardgrass; [2]) | Plant response rating, Barnyardgrass (barnyardgrass; [3]) | Plant response rating, Barnyardgrass (barnyardgrass; [4])

CCn1nc(C(C)(C)C)cc1C(=O)Nc1cccc(C(N)=O)n1 [Compound 162, 6-[[[3-(1,1-dimethylethyl)-1-ethyl-1H-pyrazol-5-yl]carbonyl]amino]-2-pyridinecarboxamide]
80: Plant response rating, Bermudagrass (bermudagrass; [5]) | Plant response rating, Bermudagrass (bermudagrass; [1]) | Plant response rating, Signalgrass (broadleaf signalgrass; [6]) | Plant response rating, Mallow (common mallow; [6]) | Plant response rating, Groundsel (common groundsel; [6]) | Plant response rating, Groundsel (common groundsel; [2]) | Plant response rating, Morningglory (pitted morningglory; [6]) | Plant response rating, Johnsongrass (johnsongrass; [8]) | Plant response rating, Barnyardgrass (barnyardgrass; [8])
0: Plant response rating, Bermudagrass (bermudagrass; [9])
98: Plant response rating, Bluegrass (annual bluegrass; [5]) | Plant response rating, Bluegrass (annual bluegrass; [6]) | Plant response rating, Surinam Grass (Surinam grass; [6])
70: Plant response rating, Bermudagrass (bermudagrass; [6]) | Plant response rating, Bermudagrass (bermudagrass; [7]) | Plant response rating, Signalgrass (broadleaf signalgrass; [1]) | Plant response rating, Signalgrass (broadleaf signalgrass; [8]) | Plant response rating, Mallow (common mallow; [1]) | Plant response rating, Horseweed (Canada horseweed; [8]) | Plant response rating, Horseweed (Canada horseweed; [9]) | Plant response rating, Morningglory (pitted morningglory; [8])
90: Plant response rating, Bluegrass (annual bluegrass; [9]) | Plant response rating, Bermudagrass (bermudagrass; [2]) | Plant response rating, Signalgrass (broadleaf signalgrass; [5]) | Plant response rating, Morningglory (pitted morningglory; [5]) | Plant response rating, Surinam Grass (Surinam grass; [8]) | Plant response rating, Barnyardgrass (barnyardgrass; [6])
65: Plant response rating, Johnsongrass (johnsongrass; [9])
20: Plant response rating, Groundsel (common groundsel; [9])
85: Plant response rating, Morningglory (pitted morningglory; [2])
40: Plant response rating, Mallow (common mallow; [9]) | Plant response rating, Groundsel (common groundsel; [1])
60: Plant response rating, Mallow (common mallow; [8]) | Plant response rating, Morningglory (pitted morningglory; [1]) | Plant response rating, Johnsongrass (johnsongrass; [7]) | Plant response rating, Surinam Grass (Surinam grass; [7]) | Plant response rating, Barnyardgrass (barnyardgrass; [7]) | Plant response rating, Barnyardgrass (barnyardgrass; [9])
50: Plant response rating, Mallow (common mallow; [7]) | Plant response rating, Surinam Grass (Surinam grass; [9])
100: Plant response rating, Bluegrass (annual bluegrass; [7]) | Plant response rating, Bluegrass (annual bluegrass; [1]) | Plant response rating, Bluegrass (annual bluegrass; [2]) | Plant response rating, Bluegrass (annual bluegrass; [4]) | Plant response rating, Bermudagrass (bermudagrass; [4]) | Plant response rating, Signalgrass (broadleaf signalgrass; [2]) | Plant response rating, Signalgrass (broadleaf signalgrass; [4]) | Plant response rating, Mallow (common mallow; [5]) | Plant response rating, Mallow (common mallow; [2]) | Plant response rating, Mallow (common mallow; [4]) | Plant response rating, Horseweed (Canada horseweed; [5]) | Plant response rating, Horseweed (Canada horseweed; [6]) | Plant response rating, Horseweed (Canada horseweed; [7]) | Plant response rating, Horseweed (Canada horseweed; [1]) | Plant response rating, Horseweed (Canada horseweed; [2]) | Plant response rating, Horseweed (Canada horseweed; [4]) | Plant response rating, Groundsel (common groundsel; [5]) | Plant response rating, Groundsel (common groundsel; [4]) | Plant response rating, Morningglory (pitted morningglory; [4]) | Plant response rating, Johnsongrass (johnsongrass; [5]) | Plant response rating, Johnsongrass (johnsongrass; [6]) | Plant response rating, Johnsongrass (johnsongrass; [1]) | Plant response rating, Johnsongrass (johnsongrass; [2]) | Plant response rating, Johnsongrass (johnsongrass; [4]) | Plant response rating, Surinam Grass (Surinam grass; [5]) | Plant response rating, Surinam Grass (Surinam grass; [4]) | Plant response rating, Barnyardgrass (barnyardgrass; [1]) | Plant response rating, Barnyardgrass (barnyardgrass; [2]) | Plant response rating, Barnyardgrass (barnyardgrass; [4])
95: Plant response rating, Bluegrass (annual bluegrass; [8]) | Plant response rating, Barnyardgrass (barnyardgrass; [5])
30: Plant response rating, Bermudagrass (bermudagrass; [8]) | Plant response rating, Signalgrass (broadleaf signalgrass; [9]) | Plant response rating, Groundsel (common groundsel; [8]) | Plant response rating, Morningglory (pitted morningglory; [7]) | Plant response rating, Morningglory (pitted morningglory; [9])
10: Plant response rating, Groundsel (common groundsel; [7])
75: Plant response rating, Surinam Grass (Surinam grass; [1])

CCNC(=O)c1cccc(NC(=O)c2nn(C(C)(C)C)nc2C)c1 [Compound 392]
70: Plant response rating, Signalgrass (broadleaf signalgrass; [2])
75: Plant response rating, Horseweed (Canada horseweed; [2]) | Plant response rating, Morningglory (pitted morningglory; [4]) | Plant response rating, Barnyardgrass (barnyardgrass; [7]) | Plant response rating, Barnyardgrass (barnyardgrass; [1])
65: Plant response rating, Windgrass (windgrass; [10]) | Plant response rating, Ryegrass, Italian (Italian ryegrass; [10])
80: Plant response rating, Bluegrass (annual bluegrass; [1]) | Plant response rating, Bluegrass (annual bluegrass; [2]) | Plant response rating, Mallow (common mallow; [1])
60: Plant response rating, Bermudagrass (bermudagrass; [7]) | Plant response rating, Bermudagrass (bermudagrass; [1]) | Plant response rating, Horseweed (Canada horseweed; [7]) | Plant response rating, Horseweed (Canada horseweed; [1]) | Plant response rating, Groundsel (common groundsel; [1]) | Plant response rating, Groundsel (common groundsel; [2]) | Plant response rating, Surinam Grass (Surinam grass; [1])
85: Plant response rating, Bermudagrass (bermudagrass; [2]) | Plant response rating, Signalgrass (broadleaf signalgrass; [4]) | Plant response rating, Horseweed (Canada horseweed; [4])
55: Plant response rating, Windgrass (windgrass; [8])
30: Plant response rating, Signalgrass (broadleaf signalgrass; [1]) | Plant response rating, Johnsongrass (johnsongrass; [1])
50: Plant response rating, Ryegrass, Italian (Italian ryegrass; [8])
40: Plant response rating, Morningglory (pitted morningglory; [1]) | Plant response rating, Morningglory (pitted morningglory; [2])
90: Plant response rating, Bermudagrass (bermudagrass; [4]) | Plant response rating, Johnsongrass (johnsongrass; [2]) | Plant response rating, Barnyardgrass (barnyardgrass; [2])
35: Plant response rating, Windgrass (windgrass; [9]) | Plant response rating, Ryegrass, Italian (Italian ryegrass; [9])
10: Plant response rating, Bluegrass (annual bluegrass; [7]) | Plant response rating, Signalgrass (broadleaf signalgrass; [7]) | Plant response rating, Mallow (common mallow; [7]) | Plant response rating, Groundsel (common groundsel; [7]) | Plant response rating, Morningglory (pitted morningglory; [7]) | Plant response rating, Johnsongrass (johnsongrass; [7])
95: Plant response rating, Mallow (common mallow; [2]) | Plant response rating, Mallow (common mallow; [4]) | Plant response rating, Groundsel (common groundsel; [4]) | Plant response rating, Johnsongrass (johnsongrass; [4]) | Plant response rating, Surinam Grass (Surinam grass; [4])
100: Plant response rating, Bluegrass (annual bluegrass; [4]) | Plant response rating, Barnyardgrass (barnyardgrass; [4])
